Here are results for six molecules from patent US5137914A, “Sulfonylamino substituted bicyclo [2.2.1]heptane hydroxamic acid derivatives useful as pharmaceuticals” (Shionogi & Co., Ltd., priority 1990, dated 1992).

The subject of data set [1] is rat washed platelets (thromboxane A2-receptor antagonistic activity). Briefly: Inhibitory Effect on Platelet Aggregation in Rat (washed platelets, collagen-induced, in vitro). The format is cell-based, rat (Sprague-Dowley). As to conditions: 0.05 h, collagen inducer, 37° C., 3 minutes after inducer, Compounds Ia and Ib used as their sodium salts, read-out: Inhibition for Platelet Aggregation IC50. Here is the method: (§1) From the abdominal artery of a male rat (Sprague-Dowley, 7 weeks old) was collected 10 ml of blood with a plastic syringe containing 1.5 ml of ACD (85 mM of sodium citrate, 70 mM of citric acid, 110 mM of glucose) and 20 μg of prostaglandin E1. The blood was placed in a plastic test tube, shaken moderately turning and centrifuged for 10 minutes at 160×g to give platelet rich plasma (PRP). To the prepared PRP was added apyrase (25 μg/ml) and the mixture was layered on 40% bovine serum albumin. The resulting mixture was centrifuged at 1200×g for 25 minutes. The suspension of the prepared platelet pellets in a small amount of a buffer (137 mM of NaCl, 2.7 mM of KCl, 1.0 mM MgCl2, 3.8 mM of NaH2 PO4, 3.8 mM of Hepes, 5.6 mM of glucose, 0.035% of bovine serum albumin, pH 7.35) was applied on 10 ml of Sepharose 2B column and eluted with such a buffer to prepare washed platelets.
(§2) The platelet aggregation reaction was measured by the aggregometer (NKK HEMA TRACER 1 MODEL PAT-6A.6M, Nikkou Bioscience).
In a measuring curvette was placed 245 μl of the washed platelets which concentration was adjusted to […] and set in the aggregometer. The adjusted washed platelets were stirred (1000 rpm) at 37° C. and 3.8 μl of 0.1M CaCl2 was added thereto. One minute later, 0.5 μl of a solution of a test compound in dimethylsulfoxide was added and 2 minutes later, 1 μl of collagen (Collagen reagent Horm®, HORMON-CHEMIE Munchen GMBH, final concentration […]) was added as an inducer for platelet aggregation. Platelet aggregation was monitored in terms of the increase and decrease in light transmission.
Concentration of 50% inhibition for platelet aggregation was calculated from the rate of aggregation. (The rate corresponds to light transmission of a sample which was measured at 3 minutes after adding the inducer for platelet aggregation, provided that light transmissions of the washed platelets and the buffer samples are taken as 0% and 100%, respectively.)

Data set [2] has as its system mice. Briefly: Respiration inhibitory activity on intravenous injection to mice (index of partial agonistic activity). The format is in vivo. The following applies: intravenously injected to mice.
The subject of data set [3] is rat platelet. The data set is described as follows: Partial agonistic activity (activity to induce the shape change in rat platelet). The following applies: decrease in light transmission, rat washed platelets, 0.1M CaCl2, read-out: ED50 of partial agonistic activity (shape change). The data set is classed as cell-based. Here is the method: as §1, §2
Furthermore, partial agonistic activity (activity to induce the shape change in rat platelet) was determined according to the method used for the reaction of platelet aggregation. To the washed platelets was added 0.1M CaCl2 aqueous solution and 1 minute later, the decrease in light transmission caused by the test compounds was determined to estimate the activity.

`O=C(CCC/C=C\C[C@H]1[C@@H]2CC[C@@H](C2)[C@@H]1NS(=O)(=O)c1ccccc1)NO` [Ia, (1R,2S,3S,4S)-(5Z)-7-(3-phenylsulfonyl-aminobicyclo[2.2.1]hept-2-yl)-5-heptenohydroxamic acid]: the half-inhibitory concentration (IC50) in data set [1] worked out at 12 nM. Moreover, the “partial agonistic activity by determination of respiration inhibitory activity” value in data set [2] is “substantially no partial agonistic activity”. With `O=C(CCC/C=C\C[C@H]1[C@@H]2CC[C@@H](C2)[C@@H]1NS(=O)(=O)c1ccc(O)cc1)NO` [Ib, (1R,2S,3S,4S)-(5Z)-7-[3-(4-hydroxyphenylsulfonylamino)bicyclo[2.2.1]hept-2-yl]-5-heptenohydroxamic acid], the half-maximal inhibitory concentration (IC50) in data set [1] was determined as 10 nM. Same read-out and setting: then `O=C(CCC/C=C\[C@@H]1[C@H]2CC[C@H](C2)[C@H]1CNS(=O)(=O)c1ccc(Br)cc1)NO` [Ic, (1S, 2S, 3R, 4R)-(5Z)-6-[3-(4-bromophenylsulfonylaminomethyl)bicyclo[2.2.1]hept-2-yl]-5-hexenohydroxamic acid], with 20 nM; and `CONC(=O)CCC/C=C\C[C@H]1[C@@H]2CC[C@@H](C2)[C@@H]1NS(=O)(=O)c1ccccc1` [Ie, (1R, 2S, 3S, 4S)-(5Z)-0-methyl-7-[3-phenylsulfonylaminobicyclo[2.2.1]hept-2-yl]-5-heptenohydroxamic acid], with 60 nM. Same read-out and setting: then `CN(O)C(=O)CCC/C=C\C[C@H]1[C@@H]2CC[C@@H](C2)[C@@H]1NS(=O)(=O)c1ccccc1` [If, (1R, 2S, 3S, 4S)-(5Z) -N-methyl-7-(3-phenylsulfonylaminobicyclo[2.2.1]hept-2-yl)-5-heptenohydroxamic acid], with 20 nM.

As to `Cc1ccc(S(=O)(=O)N[C@H]2[C@H]3CC[C@H](C3)[C@@H]2C/C=C\CCCC(=O)O)cc1` [Rf. Compd., reference compound], the EC50 in data set [3] came out at 1 nM. Further, in data set [1], the half-maximal inhibitory concentration (IC50) was determined as 2 nM.

For orientation: IC50 means the concentration that gives 50% inhibition.
